pIC50: −log10 of the molar value. *1 amine or outer side, *2 acyl side, *3 side chain or, on linkers, in order; H or OH if unused. Where a SMILES comes first, the peptide text is derived from it. Bridges are numbered along the chain shown (N, C = ends). Roman numbers before positions name the chains, in order. [ ]: non-standard residue; d: D form. Actinocin(9to1) = Cc1c2oc3c(C)ccc(C(=O)[*:1])c3nc-2c(C(=O)[*:2])c(N)c1=O; NMeV = CN[C@H](C(=O)O)C(C)C; Sar = CNCC(=O)O
Tests used:
H1299 [1] = assay: 2D cell proliferation assay (Alamar Blue), H1299; type: cell-based, human
Text: (§1) Nsl-8 was subjected to 2D cell proliferation assays using four NSCLC cell lines (A549 (human adenocarcinomic alveolar basal epithelial cells with k-ras gene mutation), H1299 (human non-small cell lung carcinoma cell line with p53 mutation), H460 (human non-small cell lung carcinoma cell line with k-ras gene mutation), and HCC827 (human NSCLC cells with EGFR mutation of deletion from E746 to A750)) and the results were presented in Table 2. There were eight concentrations used for each drug for determining its IC50. […]. Actinomycin D was a chemotherapeutic drug simply used as a quality control for all the experiments.
(§2) In the 2D cell proliferation assay, cells were cultured in DMEM containing 10% FCS and Penicillin/Streptomycin. For the assays, cells were seeded in 150 μL medium on a 96-well cell culture plate and incubated at 37° C. overnight before the compounds were added. Compounds were prepared as predilution which was 16 fold concentrated to the final assay concentration. A day after cell seeding, 10 μL of prediluted compounds was added to the cells (1:16 dilution). Treatment of cells with 0.1% DMSO or 1% DMSO (for the two top concentrations of nsl-8) and 1.0E-05 M Staurosporine was served as high control (100% viability) and low control (0% viability), respectively. Measurement of the impact of compounds on cell viability was performed as follows: 5000 cells (A549 and HCC827) or 2500 cells (H1299 and H460) were seeded in the inner wells of 96-well-plates in 150 μL complete medium. Next day, compounds were added to the medium to reach the final concentration and then incubated at 37° C. in 5% or 10% CO2 depending on the medium for 72 h. Subsequently 10 μL Alamar Blue reagent was added and fluorescence at 590 nm was measured after 5 h incubation at 37° C. in 5% CO2 using a fluorometer.
(§3) Raw data were converted into percent cell viability relative to high control (solvent 0.1% DMSO or 1% DMSO for the two top concentrations of drug nsl-8) and low control (1.0E-05 M Staurosporine), which were set to 100% and 0%, respectively.

A549 implanted tumors = assay: Subcutaneous A549 xenograft model, groups 2a-2c, o.p.; conditions: for Tumor inhibition rate (%): A549, o.p. once daily, NSL-8 70 mpk, Tarceva 20 mpk
Description: The antitumor efficacy of the drug lead nsl-8 searched was studied using the subcutaneous xenografted A549 and HCC827 lung cancer tumor models in vivo. […] Mice were maintained in individual ventilated cages (IVC, max. 4 mice/cage) at constant temperature and humidity. Animal weights were determined three times (Monday, Wednesday and Friday) for groups 1a and 1b or two times (Monday and Thursday) for groups 2a-2c and 3a-3c animals. Animal behaviour was monitored daily.
On day 0, either 2×10^6 A549 or 2×10^6 HCC827 tumor cells in 100 μL PBS were implanted into the subcutaneous space of the left flank of all corresponding BALB/c nude and SCID mice, respectively. In the following, tumor sizes were determined by caliper measurement. Tumor sizes were calculated according to the formula W^2×Lg/2 (Lg=length and W=the perpendicular width of the tumor, L>W). On day 48 or 30, after mean tumor volumes had reached approx. 100 mm^3, the corresponding tumor-bearing animals were randomized into 2 groups of 8 (A549 model: groups 1a and 1b) or 10 animals (A549 model: groups 2a and 2b) according to tumor sizes. On day 24 or 28, after mean tumor volumes had reached approx. 100 mm^3, the corresponding tumor-bearing animals were randomized into 2 groups of 10 animals (HCC827 model: groups 3a and 3b) according to tumor sizes. […] The percentage of tumor growth inhibition (TGI) was calculated using the following formula: […]
where T and C represent the mean tumor volume of the treatment and the control group, respectively.
The solution was aliquoted into several 15 ml sterile centrifuge tubes in 650 μl quantity per tube and then stored frozen at −80° C. until use. […] Animals of group 1b received 40 mg/kg nsl-8 dosage solution once daily through i.p. route on days 48-52 and 62-66, while those of groups 2b and 3b received 70 mg/kg nsl-8 dosage solution once daily through o.p. route on days 1-14 (group 2b) and days 1-14 (group 3b), respectively (Table 4).
Groups 1a and 1b (A549 model) were terminated on day 69, while groups 2a-2c (A549 model) and 3a-3c (HCC827 model) were terminated on day 15. At necropsy, animals were killed by cervical dislocation. Primary tumor weights and volumes were determined. The tumor volume and weight were analysed using descriptive data analysis (Mean, SEM, Median). Statistical analysis of efficacy data was performed using the unpaired t-test. All the data analyses were performed using GraphPad Prism 5 from GraphPad Software, Inc., San Diego, USA.
The serum level of blood urea nitrogen (BUN) was measured for assessing the renal function while those of alanine aminotransferase (ALT) and aspartate aminotransferase (AST) were measured using Ektachem DT system (Johnson & Johnson Clinical Diagnostics) for assessing the liver function. The EDTA treated anticoagulated blood samples were also collected for making a complete peripheral blood count by using a Hematology Analyzer (Sysmex, XT-1800i).
For this study, 0.161 ml nsl-8 stock solution made in DMSO was mixed with 1.339 ml 0.9% w/v saline so that the volume of a final dosage solution prepared to feed an animal was 1.5 ml and containing 10% DMSO. Therefore, both administration routes and vehicles used in treating groups 2a-2b and 3a-3b animals were quite different from that used in treating groups 1a-1b animals.

A549 [2] = assay: 2D cell proliferation assay (Alamar Blue), A549; type: cell-based, human; conditions: A549, 72 h
Text: as §1, §2, §3

H460 [3] = assay: 2D cell proliferation assay (Alamar Blue), H460; type: cell-based, human
Text: as §1, §2, §3

HCC827 [4] = assay: 3D cell proliferation assay (soft agar), HCC827; type: cell-based, human; conditions: 3D soft agar
Description: (§4) Drug nsl-8 was further subjected to a 3D cell proliferation assay for assessing its potential in inhibiting the growth of NSCLC tumors. The same four NSCLC cell lines used in 2D proliferation assays were grown in soft agar and the drug was added after the agar has solidified. The drug added cells were then incubated several days until colonies have formed in the solvent control. Subsequently, Alamar Blue which was a cell viability reagent was added and the corresponding fluorescence released was measured as an indirect quantification of colony growth in soft agar.
(§5) For each cell line, some 96 well culture plates were prepared. 100 μL of the soft agar bottom layer (0.6% final concentration in complete medium) was poured and left to solidify. 50 μL of the soft agar top layer (0.4% final concentration) containing the corresponding cells and cell number were then added on top, solidified and such 96 well plates were incubated overnight at 37° C. in 10% CO2. Next day, drugs were added at indicated final concentrations into the inner wells of the plate. Subsequently, the assays were incubated in cell culture incubators for the indicated period of time. Finally, the assays were developed using Alamar Blue and upon 3-5 h of incubation at 37 ° C. fluorescence intensity was determined (excitation: 560 nm, emission: 590 nm). […]

A549 [5] = assay: 3D cell proliferation assay (soft agar), A549; type: cell-based, human; conditions: 3D soft agar
Description: as §4, §5

HCC827 [6] = assay: 2D cell proliferation assay (Alamar Blue), HCC827; type: cell-based, human; conditions: HCC827, 72 h
Description: There were eight concentrations used for each drug for determining its IC50. […] Actinomycin D was a chemotherapeutic drug simply used as a quality control for all the experiments.
as §2, with “Compounds were prepared as predilution which was 16 fold concentrated to the final assay concentration.” left out, “h.” for “h. Subsequently 10 μL Alamar Blue reagent was added and fluorescence at 590 nm was measured after 5 h incubation at 37° C. in 5% CO2 using a fluorometer.”
as §3

H460 [7] = assay: 3D cell proliferation assay (soft agar), H460; type: cell-based, human; conditions: 3D soft agar
Description: as §4, §5

H1299 [8] = assay: 3D cell proliferation assay (soft agar), H1299; type: cell-based, human; conditions: 3D soft agar
Description: as §4, §5

| Structure (SMILES) | pIC50 (H1299 [1]; Homo sapiens, NCI-H1299, 72 h) | cell counts of white blood cell, red blood cell, or platelet versus vehicle (A549 implanted tumors; A549 model, peripheral blood at end-point, nsl-8 70 mg/kg, Tarceva 20 mg/kg o.p.) | serum levels of BUN, ALT, and AST among treatment groups (A549 implanted tumors; A549 model, upon completion of the experiments) | Tumor inhibition rate (%) (A549 implanted tumors; Day 0) | Tumor inhibition rate (%) (A549 implanted tumors; Day 3) | Tumor inhibition rate (%) (A549 implanted tumors; Day 7) | Tumor inhibition rate (%) (A549 implanted tumors; Day 10) | Tumor inhibition rate (%) (A549 implanted tumors; Day 14) | inhibition in growth of A549 implanted tumors (in words) (A549 implanted tumors; group 2c, 20 mg/kg o.p. daily) | pIC50 (A549 [2]; Homo sapiens) | pIC50 (H460 [3]; Homo sapiens, NCI-H460, 72 h) | pIC50 (H1299 [1]; 2D, H1299, 72 h, read-out: IC50) | pIC50 (HCC827 [4]) | pIC50 (A549 [2]; 2D, read-out: IC50) | pIC50 (A549 [5]) | pIC50 (HCC827 [6]) | pIC50 (H460 [3]; 2D, H460, 72 h, read-out: IC50) | pIC50 (H460 [7]) | pIC50 (H1299 [8]) |
| --- | --- | --- | --- | --- | --- | --- | --- | --- | --- | --- | --- | --- | --- | --- | --- | --- | --- | --- | --- |
| C#Cc1cccc(Nc2ncnc3cc(OCCOC)c(OCCOC)cc23)c1 [Erlotinib] | < 5.00 | no significant difference | no significant difference | 0 | −16.7 | −19.0 | −22.0 | −29.6 | no inhibition | < 5.00 | < 5.00 |  |  |  |  |  |  |  |  |
| Cc1c2oc3c(C)ccc(C(=O)N[C@@H]4C(=O)N[C@H](C(C)C)C(=O)N5CCC[C@H]5C(=O)N(C)CC(=O)N(C)[C@@H](C(C)C)C(=O)O[C@@H]4C)c3nc-2c(C(=O)N[C@@H]2C(=O)N[C@H](C(C)C)C(=O)N3CCC[C@H]3C(=O)N(C)CC(=O)N(C)[C@@H](C(C)C)C(=O)O[C@@H]2C)c(N)c1=O [Actinomycin D] (I: T[dV]P[Sar][NMeV] / II: T[dV]P[Sar][NMeV]; ester I:1-I:C, II:1-II:C; linker I:N-II:N via Actinocin(9to1)) |  |  |  |  |  |  |  |  |  |  |  | 9.51 | 9.62 | 9.04 | 9.08 | 7.92 | 9.38 | 9.17 | 9.09 |

From patent publication US20160113895A1, “Novel Use of Adapalene in Treating Esophageal Cancer and Gastrointestinal Stromal Tumor” (Biodelight Biotech Inc., priority 2013, published 2016)
